Results taken from patent US20080213390A1, “Deuterium Depleted Water (Ddw) Using As Adjuvant In Cancer Therapy For Cytostatics Toxicity Reducing” (priority 2005, published 2008).
Read-outs that look alike come from different tables or passages of the source.

Assays:
[1] = Procedure: 60 ppm concentration Deuterium Depleted Water was used for healthy adult outbred Wistar rats. Mono-chemotherapy was used to treat these animals using the following cytostatics: Vinblastine (VBL); Cyclophosphamide (CFS); 5-Fluorouracil (5-Fu); Farmarubicine (FARM). The administered doses were:
VBL—0.1 mg/kg body weight;
5-Fu—10 mg/kg body weight; and
FARM—1 mg/kg body weight.
The cytostatics were intra-peritoneally administered (i.p.) for 5 days consecutively.
The animals were distributed into two groups, as:
Animal sacrifice occurred over 5 and 10 days, respectively from the last cytostatic dose. After animal sacrifice, some tests were performed: bio-chemical, cyto-histological and morphological tests (on liver, spleen, kidneys), and tests for 3HTdR incorporation into lymphoid organs (bone marrow and lympho-nodules).
The protective effect of the 60 ppm Deuterium Depleted Water against the toxicity generated by cytostatics were studied using lots of 88 Wistar rats, each lot, males and females, with an average weight of 172 g. The animal lots were established as per GLP on pharmacological studies on laboratory-tested animals.

[2] = Measurement of protein, glycoprotein and serum protein glycolysis; type: in vivo, Wistar rats; conditions: for Amount of glycolysis with Deuterium Depleted Water: 60 ppm DDW daily diet; for Percentage of decrease of protein glycolysis in animals receiving DDW: DDW versus tap water; for Amount of Glycolysis with Tap Water: tap water daily diet
Source text: The methods used for these measurements are well known (measuring burette and the (glucidic) glucose compound dosing in the reaction with orto-toluidine).

[3] = serum, 8 rats per lot
[4] = system: P450 cyto-chromes
[5] = TW-control group (150 ppm Deuterium tap water daily diet)
[6] = DDW group, cytostatic i.p. 5 days
[7] = TW-control group similarly treated, animals with obvious toxicity signs had to be sacrificed
[8] = DDW group (daily diet with Deuterium Depleted Water)

O=P1(N(CCCl)CCCl)NCCCO1 (stereo not drawn) [Cyclophosphamide]
signs of toxicity during the 5 days of therapy and post-therapy period [1, 6]: no signs of toxicity
spontaneous mortality [1, 6]: no records of any spontaneous dead animals
spontaneous mortality [1, 7]: spontaneous mortality occurred
Amount of glycolysis with Deuterium Depleted Water [2]: 5.47 mg glucides/g proteins
Percentage of decrease of protein glycolysis in animals receiving DDW [2]: 17%
Amount of Glycolysis with Tap Water [2]: 6.59 mg glucides/g proteins
Sialic acid (average values) [3, 8]: 2.68 mmol/L
Sialic acid (average values) ([3]; TW-control group): 2.77 mmol/L
decrease of the phase I and II enzymes ([4]; group TW-CFS): approximately 100%
findings in peripheral blood [5]: anemia and granulopenia

CC[C@]1(O)C[C@@H]2CN(CCc3c([nH]c4ccccc34)[C@@](C(=O)OC)(c3cc4c(cc3OC)N(C)[C@H]3[C@@](O)(C(=O)OC)[C@H](OC(C)=O)[C@]5(CC)C=CCN6CC[C@]43[C@@H]65)C2)C1 [vinblastine, Vinblastine]
percentage of mortality ([1]; DDW group (60 ppm DDW daily diet), cytostatic i.p. 5 days): 25%
percentage of mortality ([1]; TW-control group (tap water daily diet), cytostatic i.p. 5 days): 66%
body weight increase ([1]; rat, in vivo): far more evident
signs of toxicity during the 5 days of therapy and post-therapy period ([1]; rat, in vivo, ip): low intensity toxic effects
Amount of glycolysis with Deuterium Depleted Water [2]: 7.5 mg glucides/g proteins
Percentage of decrease of protein glycolysis in animals receiving DDW [2]: 7%
Amount of Glycolysis with Tap Water [2]: 8.06 mg glucides/g proteins
Sialic acid (average values) [3, 8]: 2.82 mmol/L
Sialic acid (average values) ([3]; TW-control group): 3.00 mmol/L

COc1cccc2c1C(=O)c1c(O)c3c(c(O)c1C2=O)C[C@@](O)(C(=O)CO)C[C@@H]3O[C@H]1C[C@H](N)[C@@H](O)[C@H](C)O1 [farmarubicine, Farmarubicine]
spontaneous mortality [1, 6]: no records of any spontaneous dead animals
spontaneous mortality [1, 7]: spontaneous mortality occurred
signs of toxicity during the 5 days of therapy and post-therapy period ([1]; rat, in vivo, ip): no signs of toxicity
Amount of glycolysis with Deuterium Depleted Water [2]: 6.3 mg glucides/g proteins
Percentage of decrease of protein glycolysis in animals receiving DDW [2]: 35%
Amount of Glycolysis with Tap Water [2]: 9.72 mg glucides/g proteins
Sialic acid (average values) [3, 8]: 2.62 mmol/L
Sialic acid (average values) ([3]; TW-control group): 2.88 mmol/L

O=c1[nH]cc(F)c(=O)[nH]1 [5-fluorouracil, 5-Fluorouracil]
spontaneous mortality [1, 6]: no records of any spontaneous dead animals
spontaneous mortality [1, 7]: spontaneous mortality occurred
signs of toxicity during the 5 days of therapy and post-therapy period ([1]; rat, in vivo, ip): no signs of toxicity
Amount of glycolysis with Deuterium Depleted Water [2]: 4.2 mg glucides/g proteins
Percentage of decrease of protein glycolysis in animals receiving DDW [2]: 39%
Amount of Glycolysis with Tap Water [2]: 6.89 mg glucides/g proteins
Sialic acid (average values) [3, 8]: 2.43 mmol/L
Sialic acid (average values) ([3]; TW-control group): 3.04 mmol/L
P450 activity relative to the control group ([4]; group of animals treated with Deuterium depleted Water): approximately 200%
